# Experimental data from PMC5131364, “Pharmacologic modulation of RORγt translates to efficacy in preclinical and translational models of psoriasis and inflammatory arthritis” (Scientific Reports, 2016).
# Assays:
# [1] = tested on: CD4+ T cells from draining lymph nodes restimulated with OVA; assay: In vivo mouse Th17 differentiation (OVA/CFA) and in vitro restimulation; type: cell-based; settings: 1 μM, OVA restimulation
# Description: The following antibodies (anti-mouse or anti-human) were purchased from BD Biosciences (San Diego, CA) or eBioscience (San Diego, CA): anti-CD3-FITC (mouse 17A2 and human SK7), anti-CD4-allophycocyanin (APC), anti-CD4-PerCp, anti-CD4-FITC, anti-CD4-PE (mouse GK1.5 and human SK3), anti-CD44-PerCp (mouse IM7), anti-γδ TCR-FITC, anti-γδ TCR-PE (mouse GL3 and human B1), anti-CD62L-FITC (mouse MEL-14 and human SK11), anti-CD45RO-APC (human UCHL1), anti-CCR6-PE (human 11A9), anti-CD45-PerCp (mouse 30-F11). Human or mouse anti-IFNγ (mouse XMG1.2 and human 4S.B3), anti-TNFα (mouse MP6-XT22 and human MAB11), anti-IL-17A (mouse eBio17B7 and human eBio64DEC17), anti-IL-22 (mouse 1H8PWSR and human 22URTI), and anti-Foxp3 (mouse FJK-16s and human 36A/E7), all PE or APC conjugated, were purchased from eBioscience (San Diego, CA). Human and mouse APC conjugated CD1d tetramers pre-loaded with alpha-GalCer and negative controls were obtained from ProImmune. […] Cells were stained with fluorescence-labeled antibodies for surface marker, then fixed/permeabilized (eBioscience) and stained with antibodies for intracellular cytokines. […] The data were acquired on a FACS Calibur (BD Bioscience) and analyzed using FlowJo software (Tree Star, San Carlos, CA). […]
# [2] = tested on: human iTreg cells co-cultured with responder CD4+ T cells; assay: Human inducible regulatory T cells suppressive function; type: cell-based; settings: iTreg generated in presence of 1 μM, CFSE
# Experimental: 37 °C and 5% CO2 for 6 days. Cells were used for flow cytometry analysis of FOXP3+CD4+ T cells and RNA isolation to determine FOXP3 expression. The probe sets were purchased form Life technologies, FOXP3 […]
# Human inducible regulatory T cells generation and suppressive function
# To generate inducible regulatory T cells, naïve CD4 T cells was purified from PBMCs using naive CD4+ T cell isolation kit II, human (Miltenyi) and stimulated with anti‐CD3/anti‐CD28 antibodies plus IL‐2 and TGF‐β (10 ng/ml each, R&D system) in the presence or absence of 1µM JNJ‐54271074 . After 6‐7 days T cells were washed and Foxp3 expression was evaluated by FACS. […] After 4 days CFSE dilution was evaluated by FACS as an indication of responder T cell’s proliferation.
# Supplementary Figure 1. […] Accumulated IL‐ 17A or IFNγ  was measured by ELISA.
# Supplementary Figure 2. […] Total splenocytes were cultured with IL‐23 and IL‐2 in the presence of titrated JNJ‐54271074 for 4 days, and supernatants were measured for IL‐17A and IL‐22 by ELISA. IC50 was determined using Prism Graphpad.
# Supplementary Figure 3. […] Cells were analyzed by flow cytometry for 17A+ and IL‐ 17A+/22+ population (A). […] Cells from DMSO or 1 µM JNJ‐54271074 treated wells were analyzed by flow cytometry for IFNγ+ and IL‐17A+ population (B) and IFNγ level in supernatants was […]
compound,measurement,setting,value
COc1nc2ccc([C@@](O)(c3ccc(C)nc3C)c3cnnn3C)cc2c(Cl)c1Cc1ccc(C(F)(F)F)cc1 [JNJ-54271074],IL-17A+ and IL-17A+ IL-22+ CD4+ T cells,[1],significantly suppressed
same,IL-22 single positive cells,[1],no effect
same,Treg suppressive activity on T cell proliferation,[2],not affected
